Reference: the supplement of paper PMC10307832

Experiments:
Assay in all cases: relative viability (nuclei count vs DMSO), 5 days (fraction); higher = more cells survive
[1] = compound: C[C@@H](N)c1ccc(C(=O)Nc2ccnc3[nH]ccc23)cc1 + COc1cccc2cc(-c3nc([C@H]4CC[C@H](C(=O)O)CC4)n4ncnc(N)c34)[nH]c12 [OSI-027] (partner 0.5 µM)
Procedure, shortened: (§1)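 Five library-drug doses in √10 steps were combined with a fixed anchor-drug dose, or a single drug was given alone, by pin tool to lung cancer cell lines in 1536-well plates the day after seeding. Nuclei were stained and counted after 5 days. Relative viability is the nuclei count in treated wells over that in vehicle wells, taken as the median of duplicate plates.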

[2] = compound: C1CNCCC1C2=CC(=NN2)C3=CC=NC=C3 + Cc1cc(Nc2cc(N3CCN(C)CC3)nc(Sc3ccc(NC(=O)C4CC4)cc3)n2)n[nH]1 [Tozasertib] (partner 0.1 µM)
Procedure, shortened: as §1

Tanzisertib + Decitabine = compound: O[C@H]1CC[C@H](Nc2ncc3nc(Nc4c(F)cc(F)cc4F)n([C@H]4CCOC4)c3n2)CC1 [Tanzisertib] + Nc1ncn([C@H]2C[C@H](O)[C@@H](CO)O2)c(=O)n1 [Decitabine] (partner 2 µM)
Procedure, shortened: as §1

Tanzisertib + Linsitinib = compound: O[C@H]1CC[C@H](Nc2ncc3nc(Nc4c(F)cc(F)cc4F)n([C@H]4CCOC4)c3n2)CC1 [Tanzisertib] + C[C@]1(O)C[C@@H](c2nc(-c3ccc4ccc(-c5ccccc5)nc4c3)c3c(N)nccn32)C1 [Linsitinib] (partner 1 µM)
Procedure, shortened: as §1

Cell Line	relative viability ([1]; first compound 0.04 µM)	relative viability ([1]; first compound 0.1265 µM)	relative viability ([1]; first compound 0.4 µM)	relative viability ([1]; first compound 1.265 µM)	relative viability ([1]; first compound 4 µM)	relative viability ([2]; first compound 0.08 µM)	relative viability ([2]; first compound 0.8 µM)	relative viability ([2]; first compound 2.53 µM)	relative viability ([2]; first compound 8 µM)	relative viability (Tanzisertib + Decitabine; first compound 0.253 µM)	relative viability (Tanzisertib + Decitabine; first compound 0.8 µM)	relative viability (Tanzisertib + Decitabine; first compound 2.53 µM)	relative viability (Tanzisertib + Decitabine; first compound 8 µM)	relative viability (Tanzisertib + Linsitinib; first compound 0.08 µM)	relative viability (Tanzisertib + Linsitinib; first compound 0.253 µM)	relative viability (Tanzisertib + Linsitinib; first compound 0.8 µM)	relative viability (Tanzisertib + Linsitinib; first compound 2.53 µM)	relative viability (Tanzisertib + Linsitinib; first compound 8 µM)	relative viability (Tanzisertib + Decitabine; first compound 0.08 µM)
SW 900	0.657	0.608	0.596	0.688	0.824	0.648	0.623	0.514	0.681	0.485	0.412	0.328	0.438						
NCI-H1944	0.409	0.368	0.397	0.26	0.384	0.243	0.264	0.263	0.256	0.416	0.43	0.397	0.459	1.25	1.18	1.12	1.12	0.878	0.453
NCI-H727	0.832	0.68	0.719	0.676	0.852	0.613	0.51	0.87	0.545	0.875	0.702	0.89	0.755	0.358	0.32	0.322	0.38	0.249	0.941
NCI-H1650	0.825	0.773	0.761	0.707	0.664	0.393	0.446	0.433	0.392	0.452	0.393	0.384	0.453						0.408
HCC-827	0.849	0.873	0.844	0.922	0.764	0.389	0.435	0.453	0.432	0.372	0.257	0.367	0.207	0.919	0.915	0.907	0.954	0.746	0.338
HCC-366	0.787	0.847	0.993		1.08	0.214	0.137	0.182	0.123	0.381	0.382	0.348	0.254	0.757	0.59	0.691	0.576	0.419	
HARA		0.437	0.638		0.481	0.12	0.0979	0.11	0.0912	0.579	0.504	0.566	0.539	0.842	0.572	0.901	0.892	0.987	0.602
NCI-H322M	0.656	0.586	0.63		0.706	0.461	0.462	0.523	0.503	0.743	0.746	0.705	0.695	1	0.891	0.795	0.88	1.02	0.724
LXF-289	0.639	0.821	0.986	0.709	0.763	0.219	0.196	0.178	0.207	0.379	0.387	0.416	0.39	1.04	0.916	1.04	0.995	1.04	0.419
PC-3 [JPC-3]	0.789	0.76	0.783	0.775	0.792	0.832	0.914	0.889	0.853	0.787	0.803	0.801	0.737	1.05	0.957	0.963	0.963	0.899	0.836
CAL-12T	1.19	0.784	0.928	0.3	0.78	0.334	0.34	0.313	0.342					0.896	0.769	0.882	0.977	0.817	
COR-L 105	0.719	0.943	0.852	0.517	0.563	0.348	0.311	0.348	0.349	0.659	0.643	0.751	0.538	1.13	0.78	0.895	1.12	0.77	0.697
NCI-H2347	0.502	0.494	0.414		0.631	0.766	0.599	0.557	0.571	0.657	0.701	0.635	0.648	1.08	0.973	1.08	1.09	1.3	0.634
NCI-H2126	0.9	0.654	0.797		0.944	0.674	0.974	0.916	0.858	0.586	0.574	0.592	0.658	0.814	0.77	0.712	0.726	0.736	0.558
NCI-H838	0.395	0.45	0.413	0.339	0.253	0.314	0.292	0.28	0.284	0.468	0.459	0.483	0.481	1.02	0.997	1	1.01	0.919	0.455
A549										0.25	0.277	0.267	0.127	0.736	0.551	0.703	0.623	0.533	0.246
NCI-H2342	0.711	0.694	0.763	0.655	0.675	0.437	0.491	0.537	0.518	0.778	0.694	0.781	0.815						0.78
NCI-H1623	0.559	0.418	0.502	0.469	0.503	0.434	0.446	0.439	0.454										
SK-LU-1	0.37	0.356	0.365	0.385	0.359	0.321	0.367	0.391	0.334	0.796	0.623	0.616	0.647	1.16	1.15	1.14	1.17	1.23	0.707
NCI-H2085	0.744	0.816	0.77	0.397	0.717	0.934		0.847	0.832	0.603	0.583	0.54	0.549	1.03	0.808	0.905	0.826	0.83	
NCI-H460	0.748	0.602	0.746	0.633	0.897	0.474	0.381	0.617	0.449	0.465	0.479	0.467	0.497	0.982	0.706	0.738	0.783	0.525	0.54

Cell Line	relative viability ([1]; first compound 0.04 µM)	relative viability ([1]; first compound 0.1265 µM)	relative viability ([1]; first compound 0.4 µM)	relative viability ([1]; first compound 1.265 µM)	relative viability ([1]; first compound 4 µM)	relative viability ([2]; first compound 0.08 µM)	relative viability ([2]; first compound 0.8 µM)	relative viability ([2]; first compound 2.53 µM)	relative viability ([2]; first compound 8 µM)	relative viability (Tanzisertib + Decitabine; first compound 0.253 µM)	relative viability (Tanzisertib + Decitabine; first compound 0.8 µM)	relative viability (Tanzisertib + Decitabine; first compound 2.53 µM)	relative viability (Tanzisertib + Decitabine; first compound 8 µM)	relative viability (Tanzisertib + Linsitinib; first compound 0.08 µM)	relative viability (Tanzisertib + Linsitinib; first compound 0.253 µM)	relative viability (Tanzisertib + Linsitinib; first compound 0.8 µM)	relative viability (Tanzisertib + Linsitinib; first compound 2.53 µM)	relative viability (Tanzisertib + Linsitinib; first compound 8 µM)	relative viability (Tanzisertib + Decitabine; first compound 0.08 µM)
Calu-6														1.09	0.862	0.957	1.02	0.928	
RERF-LC-KJ	0.555	0.628	0.591	0.672	0.6	0.525	0.51	0.591	0.426	0.771	0.705	0.688	0.628	0.942	0.834	0.971	0.862	0.877	0.75
LCLC-103H	0.416	0.453	0.438	0.463	0.432	0.469	0.534	0.459	0.443	0.768	0.711	0.672	0.72	0.928	0.994	0.917	1.06	1.11	0.763
HCC-15	0.695	0.632	0.681		0.619	0.517	0.372	0.484	0.355	0.674	0.737	0.659	0.647	1.05	0.833	0.896	0.786	0.924	0.66
H3255	0.624	0.727	0.745	0.725	0.783	0.709	0.795	0.806	0.606	0.598	0.647	0.482	0.448	0.966	0.841	0.983	0.907	0.636	0.799
NCI-H1792	0.796	0.77	0.736	0.869	0.65					0.539	0.487	0.569	0.566	0.552	0.562	0.623	0.497	0.478	0.668
NCI-H1563	0.796	0.767	0.679	0.816	0.846									1.28	1.12	1.2	1.24	1.16	
NCI-H596	0.643	0.592	0.747		0.709	0.874	1.04	0.814	1.01	1.08	0.982	1	0.863	1.19	0.956	1.11	1.12	1.02	0.986
NCI-H2087	1.02	0.721	0.924		0.613	0.267	0.231	0.226	0.202	0.268	0.276	0.244	0.33	1.12	1.07	0.98	1.24	0.957	0.35
NCI-H661	0.754	0.682	0.636	0.593	0.552	0.38	0.367	0.356	0.345	0.566	0.522	0.502	0.487	0.657	0.495	0.619	0.477	0.599	0.55
NCI-H522	0.657	0.67	0.78	0.764	0.737	0.519	0.518	0.587	0.562	0.699	0.618	0.803	0.636						0.807
EMC-BAC-2	0.294	0.399	0.299	0.346	0.279	0.28	0.311	0.319	0.263	0.947	0.957	0.96	0.937	0.825	0.806	0.825	0.743	0.771	1.05
NCI-H1355	0.459	0.415	0.432	0.343	0.379	0.556	0.595	0.57	0.622	0.388	0.369	0.388	0.361	0.785	0.826	0.923	0.858	0.777	0.374
NCI-H1299														1.16	0.976	1.02	1.09	1.06	
ChaGo-K-1	0.496	0.487	0.487	0.297	0.564	0.237	0.223	0.232	0.216	0.531	0.493	0.512	0.537						0.519
NCI-H1648	0.265	0.301	0.267	0.289	0.346	0.425	0.475	0.461	0.508	0.6	0.613	0.524	0.376						0.487
EBC-1														1.29	0.876	0.846	0.899	0.783	
NCI-H2228	0.581	0.618	0.65	0.786	0.543	0.28	0.191	0.274	0.309					0.877	0.691	0.573	0.553	0.509	
IA-LM														0.793	0.552	0.589	0.712	0.768	
NCI-H1703														1.03	0.674	0.787	0.316	0.546	
NCI-H2170	0.775	0.739	0.747	0.515	0.718	0.667	0.621	0.775	0.681	0.479	0.465	0.485	0.435						0.483
